According to US11826365B2, “Type II raf kinase inhibitors” (Dana-Farber Cancer Institute, Inc., priority 2009, dated 2023):

Legend:
Format in all cases: cell-based
Erk1/2 = assay: Phosphorylation analysis by western blotting, phospho-Erk after anisomycin stimulation; details: following stimulation with anisomycin; western blot, phospho-Erk (Thr202/Tyr204)
Protocol: (§1) The phosphorylation levels of Erk, JNK, and p38 were assessed by western blotting using phospho-specific antibodies (results not shown). In brief, cells were treated for 15 min with/without 2 uM anicomycin to stimulate the MAPK-signaling pathways. Next various concentrations of the test compound were added to treat cells for 90 minutes. Cells lysed in lysis buffer (50 mM Tris-HCl pH 7.4, 150 mM NaCl, 5 mM EDTA, 1 mM EGTA, 1% Nonidet P-40, 2 mM Na3VO4 and protease inhibitor cocktail (Roche)). Equal amounts of lysate ([…]) were subjected to SDS-PAGE followed by immunoblotting with phospho-specific antibodies—anti-phospho-Erk (Thr202/Tyr204), anti-phospho-JNK (Thr183/Tyr185) and anti-phospho-p38 (Thr180/Tyr182) antibodies—or antibodies recognizing Erk (Cell signaling). Proteins were detected by enhanced chemioluminescence (ECL-plus; Amersham), following the manufacturer's guidelines.

[1] = target: T1, B-RAF 'gatekeeper mutation' T529I (Homo sapiens, UniProt P15056, T529I); assay: Suppression of B-RAF gatekeeper mutation T529I (FIGS. 18A to 18B); details: T529I confers resistance in other B-RAF inhibitors
T1 construct: expressed in transfected cells; host or cells: Ba/F3 (murine pro-B) cells transformed with B-RAF
Protocol: Ba/F3 cells and B-RAF transformed Ba/F3 cells were maintained in RPMI 1640 medium supplemented with 10% fetal bovine serum (FBS) in a 5% CO2 incubator at 37° C. The untransformed Ba/F3 cells are supplemented with 1.0 ng/ml of recombinant IL3. 4000 Ba/F3 cells per well were plated in quadruplicate in 384-well plates, in RPMI 1640 media supplemented with 10% FBS and various concentrations of IL3. After 48 h of growth, Brightglo reagent (Promega, WI) was added to each well. Luminescent was read as counts/sec. XL-fit was used for IC50 analysis.

p38 = assay: Phosphorylation analysis by western blotting, phospho-p38 after anisomycin stimulation; details: following stimulation with anisomycin; western blot, phospho-p38 (Thr180/Tyr182)
Protocol: as §1

JNK = assay: Phosphorylation analysis by western blotting, phospho-JNK after anisomycin stimulation; details: following stimulation with anisomycin; western blot, phospho-JNK (Thr183/Tyr185)
Protocol: as §1

T1 sequence (P15056 whole entry T529I): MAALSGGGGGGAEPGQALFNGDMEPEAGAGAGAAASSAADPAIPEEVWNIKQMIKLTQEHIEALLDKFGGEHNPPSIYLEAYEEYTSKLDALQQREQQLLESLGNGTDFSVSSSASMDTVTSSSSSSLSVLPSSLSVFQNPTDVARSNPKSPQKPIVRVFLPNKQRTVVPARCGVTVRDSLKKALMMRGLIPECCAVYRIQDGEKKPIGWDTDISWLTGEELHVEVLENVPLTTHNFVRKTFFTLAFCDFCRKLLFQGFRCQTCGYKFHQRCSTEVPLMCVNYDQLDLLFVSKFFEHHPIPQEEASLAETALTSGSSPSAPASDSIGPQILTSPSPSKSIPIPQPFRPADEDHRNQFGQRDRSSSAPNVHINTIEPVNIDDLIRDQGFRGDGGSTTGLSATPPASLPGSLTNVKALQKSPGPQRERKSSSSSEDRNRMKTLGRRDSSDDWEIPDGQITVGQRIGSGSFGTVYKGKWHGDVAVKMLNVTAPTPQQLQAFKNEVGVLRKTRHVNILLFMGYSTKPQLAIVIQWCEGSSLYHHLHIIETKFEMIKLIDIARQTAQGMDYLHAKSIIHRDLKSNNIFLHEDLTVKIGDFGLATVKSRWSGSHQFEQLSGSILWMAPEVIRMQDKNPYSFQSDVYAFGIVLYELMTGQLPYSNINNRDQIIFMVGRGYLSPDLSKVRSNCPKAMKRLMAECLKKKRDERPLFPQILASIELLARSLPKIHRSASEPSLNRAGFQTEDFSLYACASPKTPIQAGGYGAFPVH

- suppression of B-RAF gatekeeper mutation T529I [1]: can suppress
SMILES: CCN1CCN(Cc2ccc(NC(=O)c3ccc(C)c(/C=C/c4cnc5[nH]ccc5c4OC)c3)cc2C(F)(F)F)CC1 [XI-1, (E)-N-(4-((4-ethylpiperazin-1-yl)methyl)-3-(trifluoromethyl)phenyl)-3-(2-(4-methoxy-1H-pyrrolo[2,3-b]pyridin-5-yl)vinyl)-4-methylbenzamide]
- inhibition of phosphorylation of Erk1/2 (Erk1/2): not
- inhibition of phosphorylation of p38 (p38): inhibits
- inhibition of phosphorylation of JNK (JNK): inhibits
